The values that follow are results of earlier work, collected in patent publication US7560230B2, “Method for determining susceptibility of tumor to treatment with anti-neoplastic agent” (Threshold Pharmaceuticals, Inc., priority 2003, dated 2009).

Settings in all cases: sodium-dependent transport
The target of data set [1] is T1, SGLT2 (Homo sapiens, UniProt P31639).
T1 sequence (P31639 1-672): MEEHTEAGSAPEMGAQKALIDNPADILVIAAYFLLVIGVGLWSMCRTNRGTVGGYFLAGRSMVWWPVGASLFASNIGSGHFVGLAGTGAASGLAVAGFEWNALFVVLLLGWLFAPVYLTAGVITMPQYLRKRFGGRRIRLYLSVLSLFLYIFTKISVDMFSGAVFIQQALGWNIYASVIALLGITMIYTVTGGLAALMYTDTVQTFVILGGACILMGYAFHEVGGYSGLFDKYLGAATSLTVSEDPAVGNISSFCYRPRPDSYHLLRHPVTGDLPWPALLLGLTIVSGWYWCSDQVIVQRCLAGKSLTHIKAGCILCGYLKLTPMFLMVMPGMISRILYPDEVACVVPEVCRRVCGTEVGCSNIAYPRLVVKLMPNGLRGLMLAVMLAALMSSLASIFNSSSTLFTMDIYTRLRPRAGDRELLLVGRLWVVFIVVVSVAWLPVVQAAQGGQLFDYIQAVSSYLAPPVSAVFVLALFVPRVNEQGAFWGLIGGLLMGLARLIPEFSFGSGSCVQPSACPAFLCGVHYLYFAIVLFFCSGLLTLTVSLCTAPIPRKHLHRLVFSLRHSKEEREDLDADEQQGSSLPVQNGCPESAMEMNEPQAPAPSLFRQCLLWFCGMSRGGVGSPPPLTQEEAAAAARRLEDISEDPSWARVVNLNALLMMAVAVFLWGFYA

The subject of data set [2] is SGLT3.
Data set [3] addresses T2, SGLT1 (Homo sapiens, UniProt P13866).
T2 sequence (P13866 1-664): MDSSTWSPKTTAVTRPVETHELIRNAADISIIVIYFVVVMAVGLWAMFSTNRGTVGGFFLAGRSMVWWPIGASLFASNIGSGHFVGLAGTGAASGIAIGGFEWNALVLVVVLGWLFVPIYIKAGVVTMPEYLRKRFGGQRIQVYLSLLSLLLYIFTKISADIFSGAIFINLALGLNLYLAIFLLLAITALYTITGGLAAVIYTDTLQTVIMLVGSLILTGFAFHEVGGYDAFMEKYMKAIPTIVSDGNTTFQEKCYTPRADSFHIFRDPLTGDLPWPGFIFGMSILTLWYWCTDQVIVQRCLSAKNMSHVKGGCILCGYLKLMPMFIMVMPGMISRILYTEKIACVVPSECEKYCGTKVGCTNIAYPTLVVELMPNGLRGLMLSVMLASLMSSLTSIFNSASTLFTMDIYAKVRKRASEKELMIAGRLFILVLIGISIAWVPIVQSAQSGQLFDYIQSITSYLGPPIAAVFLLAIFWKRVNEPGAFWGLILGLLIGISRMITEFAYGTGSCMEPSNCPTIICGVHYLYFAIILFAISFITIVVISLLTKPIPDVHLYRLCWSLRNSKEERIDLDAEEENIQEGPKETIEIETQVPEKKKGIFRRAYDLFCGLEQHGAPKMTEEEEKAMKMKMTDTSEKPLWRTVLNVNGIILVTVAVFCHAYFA

`CO[C@H]1O[C@H](CO)[C@@H](O)[C@H](O)[C@H]1O` [a-MDG, a-methyl-D-glucoside]: the figures for the “apparent affinity (K0.5)” value in data set [1], in data set [2] and in data set [3] were 2 mM, 2 mM and 0.4 mM, respectively.
